Data on 13 compounds can be found in patent US6403626B1, “Benzimidazole derivatives” (Synaptic Pharmaceutical Corporation, priority 1994, dated 2002).

Experiment [1] concerns the target α2C Human Adrenergic Receptor (Homo sapiens, UniProt P18825). The experiment is described as follows: Equilibrium competition binding, [3H] rauwolscine, membranes of transfected LM(tk-) cells.
In experiment [2] the test system is rats. The conditions noted are these: systematic administration, reversed by atipamazole or idazoxan; cited from earlier work.
Experiment [3] addresses T1, α2B Human Adrenergic Receptor (Homo sapiens, UniProt P18089).
T1 construct: expressed in transfected cells; host or cells: Y-1 cells
T1 sequence (P18089 1-450): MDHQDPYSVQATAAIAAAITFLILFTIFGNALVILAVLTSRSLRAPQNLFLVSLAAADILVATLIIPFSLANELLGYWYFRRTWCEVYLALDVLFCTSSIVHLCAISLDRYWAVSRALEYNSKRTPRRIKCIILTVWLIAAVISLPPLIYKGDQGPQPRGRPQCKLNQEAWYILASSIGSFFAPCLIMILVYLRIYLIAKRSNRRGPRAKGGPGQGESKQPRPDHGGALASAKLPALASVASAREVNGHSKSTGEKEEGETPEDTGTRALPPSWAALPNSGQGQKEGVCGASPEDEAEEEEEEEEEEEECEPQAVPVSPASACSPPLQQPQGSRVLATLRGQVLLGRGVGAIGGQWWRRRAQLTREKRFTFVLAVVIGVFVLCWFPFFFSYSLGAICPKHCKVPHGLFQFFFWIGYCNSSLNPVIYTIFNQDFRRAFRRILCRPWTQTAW
The experiment is described as follows: Equilibrium competition binding, [3H] rauwolscine, membranes of transfected Y-1 cells.

Experiment [4] deals with T1, α2B Human Adrenergic Receptor. It is filed as cell-based. The method, then:
(§1) Binding and functional assays were performed using stably transfected human alpha adrenergic receptors. Equilibrium competition binding assays were performed with membrane preparations from cultured LM(tk-) cells stably transfected with the cloned human adrenoceptor subtypes except for α2b, which was expressed in Y-1 cells, using [^3H] prazosin for α1 receptors and [^3H] rauwolscine for α2 receptors.
Stable cell lines were selected as described above.
(§2) The agonist activity (expressed as pEC50) was measured as a function of the ability to inhibit the forskolin-stimulated synthesis of cyclic adenosine monophosphate (cAMP). The stably transfected cells were incubated in Ham's F10 with 5 mM theophylline, 10 mM HEPES, 10 μM pargyline, and/or appropriate concentrations of forskolin for 20 min at 37° C. in 5% CO2. The tested compounds were then added to a final concentration of 0.001 nM to 1 μM and incubated for an additional 15 min at 37° C. in 5% CO2. The medium was aspirated and the reaction was stopped by the addition of 100 mM HCl . […] The plates are stored at 4° C. for 15 min and assayed to determine the linear concentration of cAMP. The appropriate dilution is interpolated from the standard curve of cold cAMP. The assessment of cAMP formation is determined by radioimmunoassay (cAMP radioimmunoassay kit; Advanced Magnetics, Cambridge, Mass.). Radioactivity was quantified using a Packard COBRA Auto Gamma counter, equipped with data reduction software.

The target of experiment [5] is T2, α2C Human Adrenergic Receptor (Homo sapiens, UniProt P18825).
T2 sequence (P18825 1-462): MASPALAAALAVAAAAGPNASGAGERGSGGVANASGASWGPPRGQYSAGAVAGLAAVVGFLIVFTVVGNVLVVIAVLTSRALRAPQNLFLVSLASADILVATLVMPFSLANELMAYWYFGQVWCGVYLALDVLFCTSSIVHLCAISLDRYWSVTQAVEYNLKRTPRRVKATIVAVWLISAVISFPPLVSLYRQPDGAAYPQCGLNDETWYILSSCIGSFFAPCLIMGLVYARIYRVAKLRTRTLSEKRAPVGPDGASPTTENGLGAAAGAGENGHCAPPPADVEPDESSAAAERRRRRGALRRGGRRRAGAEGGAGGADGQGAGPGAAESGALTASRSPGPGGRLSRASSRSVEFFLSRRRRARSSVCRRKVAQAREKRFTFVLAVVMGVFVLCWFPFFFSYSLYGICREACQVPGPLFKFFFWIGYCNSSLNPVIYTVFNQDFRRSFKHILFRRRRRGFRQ
Format: cell-based. Set-up: The entire coding region of α2C (1383 bp), including 2 bp of 5′ UT and 400 bp of 3′ UT; expressed in transfected cells; host or cells: LM(tk-) cells. The conditions noted are these: functional cAMP assay. The method, then: as §1
The insert housing this coding region was an @ 1.8 kb Ncol/EcoRI human spleen genomic fragment which was end-blunted by either T4 polymerase or Klenow fragment of DNA polymerase. Stable cell lines were selected as described above.
as §2
Background: cAMP levels reflect the balance of adenylyl cyclase and phosphodiesterase activity.

Experiment [6] concerns the target T3, α1A Human Adrenergic Receptor (Homo sapiens, UniProt P25100).
T3 construct: expressed in transfected cells; host or cells: LM(tk-) cells
T3 sequence (P25100 1-572): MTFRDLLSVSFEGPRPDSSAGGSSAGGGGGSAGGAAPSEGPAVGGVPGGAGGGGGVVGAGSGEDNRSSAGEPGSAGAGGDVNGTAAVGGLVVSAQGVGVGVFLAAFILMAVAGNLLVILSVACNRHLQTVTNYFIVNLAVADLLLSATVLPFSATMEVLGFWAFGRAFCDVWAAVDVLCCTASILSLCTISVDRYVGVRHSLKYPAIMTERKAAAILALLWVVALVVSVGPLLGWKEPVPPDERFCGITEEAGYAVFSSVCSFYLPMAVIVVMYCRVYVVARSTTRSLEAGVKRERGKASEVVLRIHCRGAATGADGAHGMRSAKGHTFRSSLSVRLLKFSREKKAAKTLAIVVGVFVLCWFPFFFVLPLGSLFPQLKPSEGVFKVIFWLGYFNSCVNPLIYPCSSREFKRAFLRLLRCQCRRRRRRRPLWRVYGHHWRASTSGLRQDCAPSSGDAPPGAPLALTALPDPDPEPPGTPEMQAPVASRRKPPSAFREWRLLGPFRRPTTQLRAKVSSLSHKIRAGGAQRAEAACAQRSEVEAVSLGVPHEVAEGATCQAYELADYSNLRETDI
Put plainly: Equilibrium competition binding, [3H] prazosin, membranes of transfected LM(tk-) cells.

The target of experiment [7] is T4, α1B Human Adrenergic Receptor (Homo sapiens, UniProt P35368).
T4 construct: The entire coding region of α1B(1563 bp); expressed in transfected cells; host or cells: LM(tk-) cells
T4 sequence (P35368 1-520): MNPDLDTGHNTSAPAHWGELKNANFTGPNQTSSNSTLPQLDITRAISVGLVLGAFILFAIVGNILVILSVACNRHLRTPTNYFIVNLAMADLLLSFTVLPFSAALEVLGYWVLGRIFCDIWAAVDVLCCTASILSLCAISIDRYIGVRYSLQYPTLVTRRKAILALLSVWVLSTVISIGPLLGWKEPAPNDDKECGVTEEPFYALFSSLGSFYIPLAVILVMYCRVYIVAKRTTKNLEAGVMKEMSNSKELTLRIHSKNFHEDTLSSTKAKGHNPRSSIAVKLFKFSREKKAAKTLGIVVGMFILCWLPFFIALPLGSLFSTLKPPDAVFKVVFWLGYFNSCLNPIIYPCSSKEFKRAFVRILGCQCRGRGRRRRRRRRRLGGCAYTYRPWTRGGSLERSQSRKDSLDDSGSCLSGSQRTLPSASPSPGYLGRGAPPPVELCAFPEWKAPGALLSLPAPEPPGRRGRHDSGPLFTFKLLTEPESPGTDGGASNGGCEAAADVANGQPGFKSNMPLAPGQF
The experiment is described as above.

Experiment [8] deals with T5, α1C Human Adrenergic Receptor (Homo sapiens, UniProt P35348).
T5 construct: expressed in transfected cells; host or cells: LM(tk-) cells
T5 sequence (P35348 1-466): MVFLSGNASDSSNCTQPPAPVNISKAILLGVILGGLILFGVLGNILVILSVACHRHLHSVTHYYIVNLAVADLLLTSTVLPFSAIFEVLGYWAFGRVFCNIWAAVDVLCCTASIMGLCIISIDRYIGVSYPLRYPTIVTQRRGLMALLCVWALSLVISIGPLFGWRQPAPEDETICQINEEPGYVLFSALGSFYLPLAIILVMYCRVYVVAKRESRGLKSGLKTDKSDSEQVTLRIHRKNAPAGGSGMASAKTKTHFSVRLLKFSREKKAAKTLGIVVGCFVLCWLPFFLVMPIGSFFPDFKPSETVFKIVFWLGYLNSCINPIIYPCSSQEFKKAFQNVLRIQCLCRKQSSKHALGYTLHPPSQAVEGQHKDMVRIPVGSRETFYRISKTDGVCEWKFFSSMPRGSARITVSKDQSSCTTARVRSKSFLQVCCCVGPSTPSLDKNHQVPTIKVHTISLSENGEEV
The description is as above. The method, then:
as §1
Transfected cells from culture flasks were scraped into 5 ml of 5 mM Tris-HCl, 5 mM EDTA, pH 7.5, and lysed by sonication. The cell lysates were centrifuged at 1000 rpm for 5 min at 4° C., and the supernatant was centrifuged at 30,000×g for 20 min at 4° C. The pellet was suspended in 50 mM Tris-HCl, 1 mM MgCl2, and 0.1% ascorbic acid at pH 7.5. Binding of α2 antagonist [^3H] rauwolscine ([…]) to membrane preparations of LM(tk-) cells was done in a final volume of 0.25 ml and incubated at 37° C. for 20 min. Nonspecific binding was determined in the presence of 10 μM phentolamine. The reaction was stopped by filtration through GF/B filters using a cell harvester.
The construct involved ligation three partial overlapping fragments: a 5′ 0.6 kb HincII genomic clone, a central 1.8 EcoRI hippocampal cDNA clone, and a 3′ 0.6 Kb PstI genomic clone. The hippocampal cDNA fragment overlaps with the 5′ and 3′ genomic clones so that the HincII and PstI sites at the 5 and 3′ ends of the cDNA clone, respectively, were utilized for ligation. This full-length clone was cloned into the KpnI site of the expression vector, using the 5′ and 3′ KpnI sites of the fragment, derived from vector (i.e., pBluescript) and 3′-untranslated sequences, respectively. Stable cell lines were selected as described above.

Experiment [9] concerns the target T2, α2C Human Adrenergic Receptor. The experiment is described as follows: Equilibrium competition binding, [3H] rauwolscine, membranes of transfected LM(tk-) cells. This is another data set of the same source.
Setting [10] is: cloned human receptor, [3H] rauwolscine, read-out: pKi Alpha-2 B (converted).
Setting [11] is: cloned human receptor, [3H] prazosin, read-out: pKi Alpha-1 C (converted).
Setting [12] is: cloned human receptor, [3H] prazosin, read-out: pKi Alpha-1 A (converted).
[13] abbreviates: cloned human receptor, [3H] prazosin, read-out: pKi Alpha-1 B (converted).

The structures appear in SMILES notation. Like-named read-outs stand apart in the source and are kept apart here.

For the compound `CCc1nc2ccc(NC3=NCCN3)c(Br)c2[nH]1`, in [1], the Ki was found to be 182 nM.

With `CC(C)(C)c1nc2ccc(NC3=NCCN3)c(Br)c2[nH]1`, in experiment [1], the Ki was 295 nM.

In experiment [1], `Cc1cc2nc[nH]c2cc1NC1=NCCN1` gave a Ki of 214 nM.

Consider `Cc1cccc(C(C)c2cnc[nH]2)c1C` (stereo not drawn) [Medetomidine], for which the antinociception result in experiment [2] is on record as “dose-dependent antinociception”.

With `CCCCc1c(NC2=NCCN2)ccc2nc[nH]c12`, the Ki in experiment [1] worked out at 120 nM.

In experiment [1], `Cn1cnc2cc(NC3=NCCN3)ccc21` came in with a Ki of 155 nM.

The compound `CCCCc1cc(NC2=NCCN2)cc2[nH]cnc12` yielded a Ki in [1] of 204 nM.

In the case of `Ic1cc(NC2=NCCN2)cc2[nH]cnc12` [Example 54, 7-Iodo-5-(2-imidazolin-2-ylamino)Benzimidazole], the Ki was 27.5 nM in experiment [3] (setting [10]) and 200 nM in [1]. The “I.A Alpha-2 B” value in experiment [4] (functional cAMP assay) was determined as 0.60. Besides, in [4] (inhibition of forskolin-stimulated cAMP, NA: Not Active, read-out: pEC50 Alpha-2 B (converted)), the EC50 is 138 nM. The “I.A Alpha-2 C” value in [5] was 0.90.

`OCCn1cnc2ccc(NC3=NCCN3)c(Br)c21` [Example 39, 3-(2-Hydroxyethyl)-4-bromo-5-(2-imidazolin-2-ylamino)Benzimidazole]: the Ki in [3] (setting [10]) was 490 nM; in experiment [6], 1580 nM; in [7] it was 11000 nM; in experiment [8], 4790 nM; in experiment [9], 617 nM.

As for `CC(C)n1cnc2cc(NC3=NCCN3)ccc21` [Example 17, 1-Isopropyl-5-(2-imidazolin-2-ylamino)Benzimidazole], the Ki in experiment [3] was 661 nM; in [6] it was 10500 nM; in [7] it was 44700 nM; in experiment [8] (setting [11]) it was 9120 nM; in experiment [9] it was 832 nM.

For the compound `Brc1c(NC2=NCCN2)ccc2c1ncn2C1CCCC1` [Example 26, 1-Cyclopentyl-4-bromo-5-(2-imidazolin-2-ylamino)Benzimidazole], the Ki is 562 nM in experiment [3] (setting [10]); 8910 nM in [6] (setting [12]); 57500 nM in experiment [7] (setting [13]); 9550 nM in [8] (setting [11]); 257 nM in [9].

For `Cc1cc(NC2=NCCN2)cc2[nH]cnc12`, the Ki in experiment [1] was found to be 126 nM.

Consider `Brc1c(NC2=NCCN2)ccc2c1ncn2Cc1ccccc1` [Example 33, 1-Benzyl-4-bromo-5-(2-imidazolin-2-ylamino)Benzimidazole], for which the Ki in [3] (setting [10]) is 13.8 nM; in [6] (setting [12]) it was 1820 nM; in experiment [7] (setting [13]), 33100 nM; in experiment [8] (setting [11]) it was 1450 nM; in experiment [9], 162 nM.
